From article PMC11957517, “Efficient production of hydroxysalidroside in Escherichia coli via enhanced glycosylation and semi-rational design of UGT85A1” (Synthetic and Systems Biotechnology, 2025) come the findings set out here.

One experiment has as its target T1, UGT13 (Oryza sativa, UniProt Q6Z684).
T1 construct: synthesized gene in pETDuet-1, E. coli BL21(DE3) whole cells with pCDFDuet-pgm-galU
T1 sequence (Q6Z684 1-485): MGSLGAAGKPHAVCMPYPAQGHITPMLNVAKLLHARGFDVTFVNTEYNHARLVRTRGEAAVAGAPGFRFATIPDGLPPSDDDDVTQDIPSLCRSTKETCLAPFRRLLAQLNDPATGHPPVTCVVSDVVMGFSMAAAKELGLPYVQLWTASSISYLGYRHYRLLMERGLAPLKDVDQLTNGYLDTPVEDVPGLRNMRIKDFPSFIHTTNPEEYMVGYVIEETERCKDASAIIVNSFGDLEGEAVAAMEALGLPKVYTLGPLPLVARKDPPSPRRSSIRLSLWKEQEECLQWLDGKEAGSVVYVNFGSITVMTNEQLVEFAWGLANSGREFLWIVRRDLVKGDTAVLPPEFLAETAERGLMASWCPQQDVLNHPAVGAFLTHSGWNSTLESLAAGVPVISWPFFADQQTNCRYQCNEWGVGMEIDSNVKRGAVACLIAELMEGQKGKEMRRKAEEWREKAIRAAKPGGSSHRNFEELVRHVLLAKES
Briefly: whole-cell conversion in E. coli, HPLC. The conditions noted are these: intracellular UDPG, pgm and galU overexpressed, 48 h. The format is cell-based.

The target of another experiment is T2, UGT33 (Rhodiola rosea, UniProt A0A2I6B3R9).
T2 construct: synthesized gene in pETDuet-1, E. coli BL21(DE3) whole cells with pCDFDuet-pgm-galU
T2 sequence (A0A2I6B3R9 1-498): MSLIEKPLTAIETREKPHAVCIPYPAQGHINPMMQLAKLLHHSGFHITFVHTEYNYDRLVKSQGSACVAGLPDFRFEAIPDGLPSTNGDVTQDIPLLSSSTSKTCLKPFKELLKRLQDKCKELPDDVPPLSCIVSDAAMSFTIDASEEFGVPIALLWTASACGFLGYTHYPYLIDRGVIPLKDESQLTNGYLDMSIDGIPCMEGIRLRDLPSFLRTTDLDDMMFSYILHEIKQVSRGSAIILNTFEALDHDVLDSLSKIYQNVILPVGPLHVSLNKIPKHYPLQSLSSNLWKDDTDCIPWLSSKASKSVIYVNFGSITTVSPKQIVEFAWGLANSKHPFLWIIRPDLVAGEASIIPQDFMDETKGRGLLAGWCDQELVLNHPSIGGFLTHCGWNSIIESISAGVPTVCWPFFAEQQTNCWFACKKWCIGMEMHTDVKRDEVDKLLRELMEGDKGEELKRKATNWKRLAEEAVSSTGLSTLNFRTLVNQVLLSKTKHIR
Briefly: whole-cell conversion in E. coli, HPLC. The experiment is classed as cell-based. The conditions noted are these: intracellular UDPG, pgm and galU overexpressed, 48 h.

On to `OCCc1ccc(O)c(O)c1` [hydroxytyrosol], for which the “whole-cell conversion in E. coli, HPLC” value on UGT13 and at UGT33 was “all these enzymes could catalyze the synthesis of hydroxysalidroside” in each case.
